# Results taken from PubChem BioAssay AID1996.
# Conditions: buffer; pH 7.4; 200.0 µM
row,SMILES,solubility kinetic [µg/mL]
1,COc1ccc(S(=O)(=O)NC(C)C(=O)NCc2ccncc2)cc1C (stereo not drawn),51.9
2,COc1cc(N)ccc1-c1cc2ccccc2oc1=O,> 40.1
3,CC(C)c1ccc(-c2csc3nc[nH]c(=O)c23)cc1,9.1
4,Cl.Oc1cc2c(cc1O)C(c1ccccc1)CNCC2 (stereo not drawn),> 43.8
5,CNc1nc(N)c([N+](=O)[O-])c(Nc2ccccc2OC)n1,0.7
6,COP(=O)(Cc1ccc(C#N)o1)OC,> 32.3
7,COc1ccc(CNC(=O)c2ccc3ccccc3n2)cc1,18.4
8,Cc1ccc(-n2nc3c(c2NC(=O)C(C)C)CS(=O)(=O)C3)c(C)c1,> 52.1
9,Cc1nc(Nc2ccccc2)c2oc3ccc(Cl)cc3c2n1,< 0.2
10,O=C(NC1CC1)C(=O)c1c[nH]c2ccccc12,> 34.2
11,CCOc1ccc(N2C(=O)c3ccccc3NC2(C)CC)cc1 (stereo not drawn),> 46.6
12,CCOc1cc(C(=O)NC)cc(Br)c1OCc1ccccc1,< 0.8
13,O=C(Cn1c2ccc(F)cc2c2nc3n(c(=O)c21)CCS3)N1CCCC1,> 55.9
14,OCC1(CCCc2ccccc2)CCN(C2CCC2)CC1,> 43.1
15,Cc1cc([N+](=O)[O-])nn1CC(=O)N1CCN(Cc2ccccc2)CC1,> 51.5
16,Cc1oc(C(C)(C)C)cc1C(=O)N1CCN(c2ccc(C(F)(F)F)cn2)CC1,6.4
17,Cc1ccc(C(=O)NC2CCCCCCC2)c(Cl)c1,3.2
18,CSc1ccc(/C=C2\NC(=O)NC2=O)cc1,9.8
19,Cc1ccc(/C=C/C(=O)O)cc1S(=O)(=O)N1CCC(Cc2ccccc2)CC1,53.2
20,CCOc1ccc(NC(=S)NC(=O)C2CCCC2)cc1,1
21,O=C(CSc1nccc(=O)[nH]1)c1c[nH]c2ccccc12,> 42.8
22,CN(CC(=O)Nc1ccc(Cl)cc1)C(=O)CCc1ccccc1,5.2
23,Cc1ccnc(NC(=O)c2cccc(OC(F)F)c2)n1,39.9
24,COc1cc(C(=O)Nc2nc3ccccc3[nH]2)ccc1OC(F)F,1

row,SMILES,solubility kinetic [µg/mL]
1,CCOC(=O)CC(=O)CSc1nccc(-c2cccnc2)n1,> 47.6
2,CCOC(=O)CN1C(=O)S/C(=C\c2ccc3c(c2)OCO3)C1=O,1.8
3,O=C(O)/C=C/c1ccccc1[N+](=O)[O-],> 29
4,O=C1CN(S(=O)(=O)c2cccc(C(=O)O)c2)c2ccccc2N1,> 49.8
5,Cc1cccc(N2CCN(C(=S)NC3CCCCC3)CC2)c1C,< 0.2
6,O=C(CN1c2cccc3cccc(c23)S1(=O)=O)Nc1ccccc1,0.4
7,C=CCN1CCN(C(=O)c2ccc(-c3ccccc3)cc2)CC1,32.3
8,COC(=O)c1ccc(NC(=O)NC(=O)Oc2ccccc2)cc1,42.5
9,COc1ccc2c(CC(=O)NNC(=O)c3ccc(O)cc3)coc2c1,> 51.1
10,Cc1ccc(C)n1-c1ccc(C(=O)NCc2cccnc2)cc1,> 45.8
11,O=C(CN1CCN(c2ccc(O)cc2)CC1)Nc1ccc(S(=O)(=O)N2CCCC2)cc1,44.6
12,O=C(COC(=O)/C=C/c1ccccc1Cl)NCC1CCCO1 (stereo not drawn),31.9
13,CC(C)c1nc2oc3c(N(C)CCO)ncnc3c2c2c1CCC2,0.9
14,O=S(=O)(Nc1ccc(N2CCCCC2)cc1)c1ccc(F)cc1,9.5
15,O=C(Cc1c(F)cccc1Cl)NC1CCN(Cc2ccccc2)CC1,50.5
16,O=C(O)c1cc2cc(Oc3ccccc3)ccc2[nH]1,> 38
17,N#Cc1ccc(OCC(=O)Nc2ccc(N3CCCC3)cc2)cc1,5.9
18,Cc1onc(-c2ccccc2Cl)c1C(=O)Nc1cccc(S(=O)(=O)N2CCOCC2)c1,2
19,Nc1ccc(SCc2cccnc2)cc1,31
20,CC1CCc2ccccc2N1C(N)=Nc1ccccc1.Cl (stereo not drawn),> 45.3
21,O=C(Oc1cccc(C(=S)N2CCCCC2)c1)c1ccccc1,6
22,O=c1oc2ccccc2c(O)c1Cc1cc(Cl)c2cccnc2c1O,> 53.1
23,CC(C)Cn1c(SCC(=O)N2CCc3ccccc3C2)nc(O)cc1=O,> 56
24,O=[N+]([O-])c1cccnc1SCc1ccccc1,0.3

row,SMILES,solubility kinetic [µg/mL]
1,CNC(=O)C(C)N1c2cccc3cccc(c23)S1(=O)=O (stereo not drawn),34.6
2,CCOC(=O)Cc1csc(NC(=O)c2ccc([N+](=O)[O-])cc2[N+](=O)[O-])n1,> 57
3,Cc1onc(-c2ccccc2)c1CNS(=O)(=O)c1ccccc1,44
4,Cc1ncc([N+](=O)[O-])n1CC(=O)Nc1ccc(Cl)cc1,5.7
5,COc1ccc(N2C(=O)CC(SCc3ccc(Cl)cc3)C2=O)cc1 (stereo not drawn),0.9
6,CC(C)(C)c1ccc(C(=O)NC2CCS(=O)(=O)C2)cc1 (stereo not drawn),> 44.3
7,CCC1CCC(N2CCN(c3ccc([N+](=O)[O-])cc3)CC2)CC1 (stereo not drawn),8.9
8,CCCCOc1cc(C(=O)NCCN(CC)CC)c2ccccc2n1.Cl,> 57
9,O=C(CCC1CCCCC1)NC1CCCCC1,16.6
10,CC(C)N1CCN(C(=O)c2ccc([N+](=O)[O-])cc2)CC1,27.3
11,COc1ccc(C(=O)NCC(=O)OCC(=O)c2c(C)[nH]c3ccccc23)cc1OC,6.1
12,CCN(CC)S(=O)(=O)c1cccc(C(=O)Nc2cc(C)on2)c1,13.4
13,CC1(C(=O)OCC(=O)Nc2ccc(Cl)cn2)CC1(Cl)Cl (stereo not drawn),> 50.6
14,Cc1ccc(OCC(O)CN2CCOCC2)cc1 (stereo not drawn),33.4
15,O=C1CC2(CCN(C(=O)c3cccc(F)c3)CC2)Oc2ccccc21,> 50.9
16,O=C(COC(=O)c1ccc(F)cc1)NCC1COc2ccccc2O1 (stereo not drawn),> 51.8
17,CN(C)CCN=Cc1c(O)n(Cc2ccc3c(c2)OCO3)c(=S)[nH]c1=O,55.8
18,Fc1cc(Cl)ccc1NC(=S)NCCN1CCOCC1,> 47.7
19,CCOc1ccc(S(=O)(=O)N(CC)CC(=O)N2CCCC2)cc1,> 51.1
20,Cc1oc2ccccc2c1CNC(=O)N(C)C,> 34.8
21,c1ccc(-c2ccccc2OCCCCn2ccnc2)cc1,31.3
22,COc1ccc(NS(=O)(=O)c2cc(NC(=O)COc3ccccc3)ccc2N2CCOCC2)cc1,3.1
23,CC1CCN(C(=O)CCN2C(=O)C3C4C=CC(C4)C3C2=O)CC1 (stereo not drawn),> 47.5
24,C[C@H](C(=O)NCc1ccccc1)C(=O)c1ccccc1,> 40.1

row,SMILES,solubility kinetic [µg/mL]
1,NS(=O)(=O)c1ccc(NC(=O)COC(=O)c2ccc(S(=O)(=O)N3CCOCC3)cc2)cc1,13
2,Cc1ccc(Nc2c(-c3ccc(C)o3)nc3ncccn23)cc1,1.9
3,CC(C)CC(=O)NC(=S)Nc1ccccc1N1CCCC1,4
4,CC1(C)CC2CC(C)(CN2C(=O)c2cc(-c3ccccc3)on2)C1 (stereo not drawn),3.3
5,CCOC(=O)c1ccc(NC(=O)NCCc2cnc[nH]2)cc1,> 45.3
6,COc1ccc(OC)c(/C=C2\N=C(c3ccccc3)OC2=O)c1,0.8
7,CN(C)/C=C/C(=O)c1ccc(C(F)(F)F)cc1F,35
8,CCc1noc(C)c1C(=O)OCC(=O)Nc1ccc2c(c1)OCO2,9.5
9,CN(C1CCCCC1)S(=O)(=O)c1cn(C)c(=O)n(C)c1=O,> 47.3
10,Cn1c(N)c(C(=O)COc2ccc(C#N)cc2)c(=O)n(C)c1=O,9.4
11,Cc1ccc(OCC(=O)Nc2ccc3c(c2)CCC3)c([N+](=O)[O-])n1,2.1
12,CCOC(=O)c1cc2c(ccn2C)n1CC(=O)N(C)C,> 41.6
13,Cc1ccc2cc3cc(C(=O)NC4CCCCC4)oc3nc2c1,0.7
14,Cc1cccc(NC(=O)C(C)SCc2ccccc2)c1 (stereo not drawn),27.9
15,N#Cc1ccccc1OCC(=O)OCC(=O)NC1CCCCCC1,> 49.6
16,c1ccc(SCc2cn3cccnc3n2)nc1,> 36.3
17,O=C(NCc1ccc2c(c1)OCO2)c1sccc1Br,48.4
18,O=C(Nc1nccs1)c1cncc(Br)c1,20.4
19,CC1CCCC(C)N1CC(O)COCc1ccccc1.Cl (stereo not drawn),> 47.1
20,Cl.c1cncc(CNc2ncnc3sc4c(c23)CCC4)c1,7.5
21,CN1CCC(N(C)c2ccc(C(N)=O)cc2[N+](=O)[O-])CC1,40.1
22,COc1ccccc1CNS(=O)(=O)c1ccc(Cl)s1,> 47.7
23,CN(C)C(=O)N1CCNCC1.Cl,> 29.1
24,O=C(CSCc1ccccc1F)NCc1ccc(F)cc1,> 46.1

row,SMILES,solubility kinetic [µg/mL]
1,Cc1cc(/C(N)=N/OC(=O)c2cccc(Cl)c2)no1,2.2
2,O=C(NCCN1CCOCC1)c1cc([N+](=O)[O-])cc([N+](=O)[O-])c1,> 48.6
3,COc1ccc(NC(=O)CSc2nncn2C)cc1,> 41.7
4,O=C1NC(=S)N/C1=C/c1ccc2c(c1)OCO2,1.5
5,CN(Cc1nc2ccccc2n1C)C(=O)c1ccco1,39.9
6,C/C=C/C=C(/NC(=O)c1ccccc1)C(=O)Nc1ccccc1,2.3
7,CCOC(=O)C1CCCN(C(=O)c2cc3cc(F)ccc3[nH]2)C1 (stereo not drawn),23.9
8,CCn1ccc(-c2ccccc2)c(C#N)c1=O,> 33.6
9,Cc1cnc(C(=O)OC(C)C(=O)NCc2ccccc2)cn1 (stereo not drawn),> 44.9
10,Nc1nc(Oc2ccc(F)cc2)c(Br)c(=O)[nH]1,> 45
11,COc1ccc(-c2nc(S(=O)(=O)c3ccccc3)c(NCCCN3CCOCC3)o2)cc1,67.8
12,Cc1ccc2oc(=O)n(Cc3ccc(F)cc3)c2c1,2
13,Cc1ccc(SCCNCc2ccco2)cc1.Cl,27.9
14,O=c1[nH]cnc(O)c1C(c1ccc(F)cc1)c1c(O)nc[nH]c1=O,> 49.5
15,OC(CNc1ncnc2sccc12)c1ccccc1 (stereo not drawn),> 40.7
16,C[C@@H](C(=O)Nc1ccc(OC(F)F)c(Cl)c1)N1C(=O)C2CC=CCC2C1=O (stereo partly drawn),> 59.8
17,O=C(NC1CCCC1)c1cc2cc(Br)ccc2o1,6.1
18,CCCOc1ccc(C(=O)NCCC(=O)NCCCC(=O)O)cc1,> 50.5
19,O=S(=O)(Nc1ccccc1O)c1ccc(Cl)nc1,35.6
20,Cc1cccn2c(=O)nc(SCC(=O)NCc3ccco3)nc12,> 49.6
21,NS(=O)(=O)c1ccc(NS(=O)(=O)c2ccc(Br)cc2)cc1,> 58.7
22,COC1=C(N)C(=O)c2nc(-c3nc(C(=O)O)c(C)c(-c4ccc(OC)c(OC)c4O)c3N)ccc2C1=O,74.9
